According to PubChem BioAssay AID1388 (Sanford-Burnham Center for Chemical Genomics, 2008):
Activity calls are given as the source filed them.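 How the source made its calls: active means no detectable phosphorylated eIF2 alpha band on the immunoblot of stressed cell lysates; inactive means phospho eIF2 alpha band still visible on the blot.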

Biological target: Eukaryotic translation initiation factor 2 subunit 1 (Rattus norvegicus) (UniProt P68101)
Assay: blockers of stress-induced eIF2α phosphorylation – cell-based, thapsigargin, Western blot, mechanism study for ER stress cell death project, late-stage follow-up (AID 1388)
Settings: CSM14.1 cells, phospho-eIF2a Western blot

Eukaryotic translation initiation factor 2 subunit 1 (Rattus norvegicus), sequence (P68101 whole entry, looked up): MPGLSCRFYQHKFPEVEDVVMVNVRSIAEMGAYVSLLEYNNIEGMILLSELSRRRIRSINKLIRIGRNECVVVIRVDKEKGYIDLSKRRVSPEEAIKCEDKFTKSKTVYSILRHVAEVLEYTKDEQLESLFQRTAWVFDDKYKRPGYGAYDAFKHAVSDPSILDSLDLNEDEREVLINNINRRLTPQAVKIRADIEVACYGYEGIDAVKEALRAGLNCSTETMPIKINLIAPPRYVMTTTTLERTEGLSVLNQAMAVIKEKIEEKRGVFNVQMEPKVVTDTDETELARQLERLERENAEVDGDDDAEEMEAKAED

Row | SMILES | outcome
1 | COc1ccc(C2CC(=O)C3=C(C2)Nc2ccccc2NC3c2ccccc2C(F)(F)F)cc1OC (stereo unspecified) | inactive
2 | COc1ccc(C2CC(=O)C3=C(C2)Nc2ccccc2NC3c2cccc(Br)c2)cc1OC (stereo unspecified) | inactive
3 | COc1ccc(C2CC(=O)C3=C(C2)Nc2ccccc2NC3c2cc(C)ccc2C)cc1 (stereo unspecified) | inactive
4 | CCCOc1ccc(C2Nc3ccccc3NC3=C2C(=O)CC(c2ccc(OC)c(OC)c2)C3)cc1 (stereo unspecified) | inactive
5 | CCOc1cc(C2Nc3ccccc3NC3=C2C(=O)CC(c2ccc(OC)cc2)C3)cc(Cl)c1O (stereo unspecified) | inactive
6 | CCOc1cccc(C2Nc3ccccc3NC3=C2C(=O)CC(c2ccc(OC)cc2)C3)c1 (stereo unspecified) | inactive
7 | COc1ccc(C2CC(=O)C3=C(C2)Nc2ccccc2NC3c2cccc(C(F)(F)F)c2)cc1OC (stereo unspecified) | inactive
8 | COc1ccc(C2CC(=O)C3=C(C2)Nc2ccccc2NC3c2cccc(Oc3ccccc3)c2)cc1OC (stereo unspecified) | inactive
9 | CSc1ccc(C2Nc3ccccc3NC3=C2C(=O)CC(c2ccccc2)C3)cc1 (stereo unspecified) | inactive
10 | O=C1CC(c2ccccc2)CC2=C1C(c1c(F)cccc1Cl)Nc1ccccc1N2 (stereo unspecified) | inactive
11 | CC1(C)CC(=O)C2=C(C1)Nc1ccccc1NC2c1ccc(-c2ccccc2)cc1 (stereo unspecified) | inactive
